In general, IC50 refers to the concentration needed to halve the response being measured.

Data set [1] in a line: Human metabolic stability half-life assay. The note with it: human liver microsomes, NADPH, 0.5 μM compound, 45-minute time course; for half-life at 0.5 µM: pH 7.4, read-out: HLM (t1/2, min). Type of data set: in vitro ADME. The text has this: Metabolic Stability Half-Life Panel
Background: Liver microsomes are vesicles of endoplasmic reticulum, rich in cytochrome P450 enzymes.

For the next data set, the system named is human Notch 3. Kind of data set: Notch-CBF1 Transactivation Assay (Notch 3). The data set is classed as cell-based. To be noted: read-out: Notch 3 (IC50); HeLa cells transfected with truncated Notch 3 and CBF1 luciferase reporter; 18 hours; average of N experiments. From the text:
(§1) Notch-CBF1 Transactivation Assay
(§2) The Notch-CBF1 (C-promoter binding factor I) cell based transactivation assay is based on the ability of the released Notch intracellular domain fragments (NICDs) to function as transcription factors in conjunction with CBF1 and other nuclear factors. Luciferase assays were used to measure the antagonism of Notch-CBF1 transcriptional activity. HeLa cervical cancer cells are transiently co-transfected with pCDNA3.1/Hygro plasmids containing truncated Notch 1, Notch 2, Notch 3, or Notch 4 receptors and a PGL3 luciferase reporter vector containing 4 copies of CBF1 binding site. The cells were then tested for Notch-CBF1 activity in the absence or presence of test compounds. HeLa cells, maintained in DMEM (high glucose with HEPES), 1× glutamine/penicillin/streptomycin and 10% Fetal Bovine serum, were transiently transfected in a T175 Flask (4.5×10^6 cells/flask) using the Monster Transfection Kit (Minis #MIR2906) according to manufacturers specifications. Table 5 denotes respective DNA quantity for the transfections.
(§3) Assay media (5 μL) containing test compounds in final concentrations ranging from 5 μM to 8.4×10^−5 μM (3 fold serial dilutions) were added to the cells and the cell plates were then incubated for 18 hours at 37° C. and 5% CO2. Control wells contained DMSO vehicle (total counts) or 0.5 μM of an in-house small molecule inhibitor (background counts). Duplicates were used for each sample. Luciferase activity was measured after a 20-minute incubation with 50 μl STEADY-GLO® luciferase reagents according to manufacturer's specifications (Promega, Cat. #E2550) and analyzed by Envision plate reader (PerkinElmer, Boston, Mass.).
(§4) The antagonist effect of compounds was expressed as 100×[1−(average sample−average background)/(average total−average background)] where sample is the luciferase activity in the presence of test compound, background is equal to the luciferase activity in the presence of the small molecule inhibitor control and the total is signal induced in DMSO wells.

Another data set relates to human Notch 1. Kind of data set: Notch-CBF1 Transactivation Assay (Notch 1). The data set is classed as cell-based. The note with it: read-out: Notch 1 (IC50); HeLa cells transfected with truncated Notch 1 and CBF1 luciferase reporter; 18 hours; average of N experiments.
Description: as §1, §2, §3, §4
In general terms: A reporter such as luciferase makes a cellular process visible.

With `CCC[C@H](C(N)=O)[C@@H](CC(C)C)C(=O)N[C@H]1N=C(c2ccccc2)c2ccccc2N(C)C1=O` [Comparative Compound 26, reference compound], the “HLM (t1/2, min)” value in data set [1] was found to be 8 min.
Still for that read-out and setting: for `C=CC[C@H](C(N)=O)[C@@H](CC(C)C)C(=O)N[C@H]1N=C(c2ccccc2)c2cc(Cl)ccc2N(C)C1=O` [Comparative Compound 27, reference compound] the value was 6 min.
Same read-out and setting: for `CCCC[C@H](C(N)=O)[C@@H](CC(C)C)C(=O)N[C@H]1N=C(c2ccc(Cl)cc2)c2ccccc2N(C)C1=O` [Comparative Compound 28, reference compound] the value was 6 min; for `C=CC[C@H](C(N)=O)[C@@H](CC(C)C)C(=O)N[C@H]1N=C(c2ccccc2)c2ccccc2N(CCC)C1=O` [Comparative Compound 29, reference compound], 3 min.
Turning to `COc1cccc2c1NC(=O)[C@@H](NC(=O)[C@H](CCC(F)(F)F)[C@@H](C(N)=O)C1CCC(F)(F)CC1)N=C2c1ccccc1` [Example 2, (2R,3S)-3-(4,4-Difluorocyclohexyl)-N-((3S)-9-methoxy-2-oxo-5-phenyl-2,3-dihydro-1H-1,4-benzodiazepin-3-yl)-2-(3,3,3-trifluoropropyl)succinamide], the half-life at 0.5 µM in data set [1] was 43 min. Besides, the IC50 in the data set with human Notch 3 was found to be 6 nM; with human Notch 1, 7 nM.
The matching figures for `NC(=O)[C@@H](C1CCC(F)(F)CC1)[C@@H](CCC(F)(F)F)C(=O)N[C@H]1N=C(c2cccc(F)c2)c2cccc(OC3CC3)c2NC1=O` [Example 3, (2R,3S)—N-((3S)-9-(Cyclopropyloxy)-5-(3-fluorophenyl)-2-oxo-2,3-dihydro-1H-1,4-benzodiazepin-3-yl)-3-(4,4-difluorocyclohexyl)-2-(3,3,3-trifluoropropyl)succinamide]: 80 min, 8.9 nM and 4.2 nM.
Consider `NC(=O)[C@@H](C1CCC(C(F)(F)F)CC1)[C@@H](CCC(F)(F)F)C(=O)N[C@H]1N=C(c2ccccc2)c2cccc(Cl)c2NC1=O` (stereo partly drawn) [Example 4, (2R,3S)—N-((3S)-9-Chloro-2-oxo-5-phenyl-2,3-dihydro-1H-1,4-benzodiazepin-3-yl)-3-(4-(trifluoromethyl)cyclohexyl)-2-(3,3,3-trifluoropropyl)succinamide], for which the half-life at 0.5 µM in data set [1] is greater than 120 min. The IC50 amounted to 21.2 nM with human Notch 3 and 11.9 nM with human Notch 1.
The corresponding values for `NC(=O)[C@@H](C1CCC(F)(F)CC1)[C@@H](CCC(F)(F)F)C(=O)N[C@H]1N=C(c2ccccc2)c2cccc(Cl)c2NC1=O` [Example 5, (2R,3S)—N-((3S)-9-Chloro-2-oxo-5-phenyl-2,3-dihydro-1H-1,4-benzodiazepin-3-yl)-3-(4,4-difluorocyclohexyl)-2-(3,3,3-trifluoropropyl)succinamide] are 72 min, 7.3 nM and 4.4 nM.
`NC(=O)[C@@H](C1CC(F)(F)C1)[C@@H](CCC(F)(F)F)C(=O)N[C@H]1N=C(c2ccccc2)c2ccccc2NC1=O` [Example 6]: the half-life at 0.5 µM in data set [1] is greater than 120 min. Further, the IC50 in the data set on human Notch 3 amounted to 18.9 nM; in the data set with human Notch 1 it was 14 nM.
The corresponding values for `NC(=O)[C@@H](CC1CC(F)(F)C1)[C@@H](CCC(F)(F)F)C(=O)N[C@H]1N=C(c2ccccc2)c2cccc(OC3CC3)c2NC1=O` [Example 7, (2R,3S)—N-((3S)-9-(Cyclopropyloxy)-2-oxo-5-phenyl-2,3-dihydro-1H-1,4-benzodiazepin-3-yl)-3-((3,3-difluorocyclobutyl)methyl)-2-(3,3,3-trifluoropropyl)succinamide] are greater than 120 min, 2.1 nM and 3.9 nM.
The matching figures for `COc1cccc2c1NC(=O)[C@@H](NC(=O)[C@H](CCC(F)(F)F)[C@H](CC1CC(F)(F)C1)C(N)=O)N=C2c1ccccc1` [Example 8, (2R,3S)-3-((3,3-Difluorocyclobutyl)methyl)-N-((3S)-9-methoxy-2-oxo-5-phenyl-2,3-dihydro-1H-1,4-benzodiazepin-3-yl)-2-(3,3,3-trifluoropropyl)succinamide]: 58 min, 4 nM and 2.9 nM.
The corresponding values for `Cc1cccc2c1NC(=O)[C@@H](NC(=O)[C@H](CCC(F)(F)F)[C@H](CC1CC(F)(F)C1)C(N)=O)N=C2c1cccc(F)c1` [Example 9, (2R,3S)-3-((3,3-Difluorocyclobutyl)methyl)-N-((3S)-5-(3-fluorophenyl)-9-methyl-2-oxo-2,3-dihydro-1H-1,4-benzodiazepin-3-yl)-2-(3,3,3-trifluoropropyl)succinamide] are 91 min, 3.2 nM and 3.5 nM.
In the case of `Cc1cccc(C2=N[C@H](NC(=O)[C@H](CCC(F)(F)F)[C@H](CC3CC(F)(F)C3)C(N)=O)C(=O)Nc3c(Cl)cccc32)c1` [Example 10, (2R,3S)—N-((3S)-9-Chloro-5-(3-methylphenyl)-2-oxo-2,3-dihydro-1H-1,4-benzodiazepin-3-yl)-3-((3,3-difluorocyclobutyl)methyl)-2-(3,3,3-trifluoropropyl)succinamide], the half-life at 0.5 µM in data set [1] was determined as 69 min. Moreover, the IC50 came out at 4.4 nM with human Notch 3 and 1.7 nM in the data set with human Notch 1.
The corresponding values for `Cc1cccc(C2=N[C@H](NC(=O)[C@H](CCC(F)(F)F)[C@H](CC3CC(F)(F)C3)C(N)=O)C(=O)Nc3c(F)cccc32)c1` [Example 11, (2R,3S)-3-((3,3-Difluorocyclobutyl)methyl)-N-((3S)-9-fluoro-5-(3-methylphenyl)-2-oxo-2,3-dihydro-1H-1,4-benzodiazepin-3-yl)-2-(3,3,3-trifluoropropyl)succinamide] are 46 min, 2.2 nM and 2.1 nM.
In the case of `NC(=O)[C@@H](CC1CC(F)(F)C1)[C@@H](CCC(F)(F)F)C(=O)N[C@H]1N=C(c2ccccc2)c2cccc(C3CC3)c2NC1=O` [Example 12, (2R,3S)—N-((3S)-9-Cyclopropyl-2-oxo-5-phenyl-2,3-dihydro-1H-1,4-benzodiazepin-3-yl)-3-((3,3-difluorocyclobutyl)methyl)-2-(3,3,3-trifluoropropyl)succinamide], in data set [1], the half-life at 0.5 µM is 41 min. The IC50 in the data set with human Notch 3 came to 4.3 nM; in the data set with human Notch 1, 5.6 nM.
The corresponding values for `NC(=O)[C@@H](CC1CC(F)(F)C1)[C@@H](CCC(F)(F)F)C(=O)N[C@H]1N=C(c2ccccc2)c2cccc(Cl)c2NC1=O` [Example 13, (2R,3S)—N-((3S)-9-Chloro-2-oxo-5-phenyl-2,3-dihydro-1H-1,4-benzodiazepin-3-yl)-3-((3,3-difluorocyclobutyl)methyl)-2-(3,3,3-trifluoropropyl)succinamide] are greater than 120 min, 2.4 nM and 2.8 nM.
Regarding `NC(=O)[C@@H](CC1CC(F)(F)C1)[C@@H](CCC(F)(F)F)C(=O)N[C@H]1N=C(c2ccccc2)c2cccc(F)c2NC1=O` [Example 14, (2R,3S)-3-((3,3-Difluorocyclobutyl)methyl)-N-((3S)-9-fluoro-2-oxo-5-phenyl-2,3-dihydro-1H-1,4-benzodiazepin-3-yl)-2-(3,3,3-trifluoropropyl)succinamide], the half-life at 0.5 µM in data set [1] is greater than 120 min. Further, the values for the 50% inhibitory concentration (IC50) in the data set on human Notch 3 and with human Notch 1 were 1.4 nM and 4.5 nM, respectively.

For the origin of these results see patent publication US9427442B2, “Fluoroalkyl and fluorocycloalkyl 1,4-benzodiazepinone compounds” (BRISTOL-MYERS SQUIBB COMPANY, priority 2012, dated 2016).
